Converted amounts (≈) assume the structure as drawn. Where two headings read alike, the source gives them in different places.
Assays:
Past. multocida PA1 = test: MIC against veterinary bacteria in vitro; details: Pasteurella multocida, PA1, 18 h
Description: (§1) The activity of the compounds of the Examples against various veterinarily important bacteria, was assayed in vitro using two-fold serial dilutions in Diagnostic Sensitivity Test Agar inoculated with 10^4 organisms.

M. dispar NCTC 10125 = test: MIC against mycoplasma in vitro; assay type: cell-based; details: 144 h
Strep. dysgalactiae SPD1 = test: MIC against veterinary bacteria in vitro; details: Streptococcus dysgalactiae, SPD1, 18 h
Description: as §1

[1] = tested on: M. suipneumoniae J2206/183^b; test: MIC against mycoplasma in vitro; assay type: cell-based; details: Mesomycoplasma hyopneumoniae, 144 h
Past. haemolytica PA5 = test: MIC against veterinary bacteria in vitro; details: Mannheimia haemolytica, PA5, 18 h
Description: as §1

Strep. uberis SPU1 = test: MIC against veterinary bacteria in vitro; details: Streptococcus uberis, SPU1, 18 h
Description: as §1

M. hyorhinis ATCC 25021 = test: MIC against mycoplasma in vitro; assay type: cell-based; details: Mesomycoplasma hyorhinis, ATCC25021, 144 h
M. bovis NCTC 10131 = test: microbe, parasite or virus in culture; assay type: cell-based; details: NCTC10131, 144 h
[2] = tested on: Corynebacterium xerosis 9755; test: MIC against human bacteria in vitro; assay type: cell-based; details: Corynebacterium xerosis 9755; 5% chocolated horse blood agar, 18 hours; read-out: MIC
K. aerogenes A = test: MIC against human bacteria in vitro; assay type: cell-based; details: Klebsiella aerogenes; K. aerogenes A; 5% chocolated horse blood agar, 18 hours; read-out: MIC
[3] = tested on: Strep. pyogenes R80/421-A; test: MIC against human bacteria in vitro; assay type: cell-based; details: Streptococcus pyogenes
[4] = tested on: M. hyosynoviae ATCC 25591; test: MIC against mycoplasma in vitro; assay type: cell-based; details: 144 h
[5] = tested on: M. suipneumoniae PW/C/210; test: MIC against mycoplasma in vitro; assay type: cell-based; details: Mesomycoplasma hyopneumoniae, 144 h
Staph. aureus Oxford = test: MIC against human bacteria in vitro; assay type: cell-based; details: Staphylococcus aureus; Staph. aureus Oxford; 5% chocolated horse blood agar, 18 hours; read-out: MIC
Bacillus subtilis 6633 = test: MIC against human bacteria in vitro; assay type: cell-based; details: Bacillus subtilis 6633; 5% chocolated horse blood agar, 18 hours; read-out: MIC
[6] = tested on: Staph. aureus B4 (pen. resistant); test: MIC against veterinary bacteria in vitro; details: Staphylococcus aureus, 18 h
Description: as §1

M. suipneumoniae Str. 11 = test: MIC against mycoplasma in vitro; assay type: cell-based; details: Mesomycoplasma hyopneumoniae
M. suipneumoniae LABER = test: MIC against mycoplasma in vitro; assay type: cell-based; details: Mesomycoplasma hyopneumoniae, 144 h
B. subtilis ATCC 6633 = test: MIC against veterinary bacteria in vitro; details: Bacillus subtilis, ATCC6633, 18 h
Description: as §1

E. coli NCTC 10418 = test: MIC against human bacteria in vitro; assay type: cell-based; details: Escherichia coli, NCTC10418; E. coli NCTC 10418; agar with 5% chocolated horse blood, 18 hours, 37° C.; read-out: MIC
P. mirabilis 889 = test: MIC against human bacteria in vitro; assay type: cell-based; details: Proteus mirabilis; P. mirabilis 889; 5% chocolated horse blood agar, 18 hours; read-out: MIC
Strep. faecalis I = test: MIC against human bacteria in vitro; assay type: cell-based; details: Enterococcus faecalis; Strep. faecalis I; 5% chocolated horse blood agar, 18 hours; read-out: MIC
[7] = tested on: Corynebacterium pyogenes CY1; test: MIC against veterinary bacteria in vitro; details: CY1, 18 h
Description: as §1

[8] = M. hyorhinis ATCC 25021, 6 days, 37° C., read-out: MIC
[9] = M. suipneumoniae PW/C/210, 6 days, 37° C., read-out: MIC
[10] = 144 h, M. suipneumoniae Str. 11, 6 days, 37° C., read-out: MIC
[11] = M. suipneumoniae LABER, 6 days, 37° C., read-out: MIC
[12] = Strep. pyogenes R80/421-A, 5% chocolated horse blood agar, 18 hours, read-out: MIC

| SMILES | MIC (Past. multocida PA1) | MIC (M. dispar NCTC 10125) | MIC (Strep. dysgalactiae SPD1) | MIC [1] | MIC (Past. haemolytica PA5) | MIC (Strep. uberis SPU1) | MIC (M. hyorhinis ATCC 25021; [8]) | MIC (M. bovis NCTC 10131) | MIC [2] | MIC (K. aerogenes A) | MIC (Staph. aureus Oxford) | MIC (Bacillus subtilis 6633) | MIC [6] | MIC (M. suipneumoniae Str. 11; [10]) | MIC (B. subtilis ATCC 6633) | MIC (E. coli NCTC 10418) | MIC (P. mirabilis 889) | MIC (Strep. faecalis I) | MIC [7] | MIC [3, 12] | also measured |
| --- | --- | --- | --- | --- | --- | --- | --- | --- | --- | --- | --- | --- | --- | --- | --- | --- | --- | --- | --- | --- | --- |
| C/C(=C\c1ncc(-c2ccsc2)o1)C[C@@H]1OC[C@H](C[C@@H]2O[C@H]2[C@@H](C)[C@H](C)O)[C@@H](O)[C@H]1O [Example 20, 5-(3-Thienyl)-2-(1-normon-2-yl) oxazole A] | 2.5 µg/mL (≈ 5.56 µM) | 0.25 µg/mL (≈ 0.556 µM) | 0.625 µg/mL (≈ 1.39 µM) | 1 µg/mL (≈ 2.22 µM) | 80 µg/mL (≈ 178 µM) | 0.156 µg/mL (≈ 0.347 µM) | 0.5 µg/mL (≈ 1.11 µM) | ≤ 0.01 µg/mL | > 128 µg/mL | > 128 µg/mL | 4 µg/mL (≈ 8.9 µM) | 0.5 µg/mL (≈ 1.11 µM) | 0.63 µg/mL (≈ 1.4 µM) | 0.5 µg/mL (≈ 1.11 µM) | 10 µg/mL (≈ 22.2 µM) | > 128 µg/mL | > 128 µg/mL | > 128 µg/mL | > 80 µg/mL | – | MIC ([3]; R80/421A, 18 h): 0.25 µg/mL (≈ 0.556 µM); MIC ([4]; M. hyosynoviae ATCC 25591, 6 days, 37° C., read-out: MIC): 0.5 µg/mL (≈ 1.11 µM); MIC [5, 9]: 0.5 µg/mL (≈ 1.11 µM); MIC (M. suipneumoniae LABER; [11]): 0.5 µg/mL (≈ 1.11 µM) |
| C/C(=C\c1ncc(-c2ccc(C#N)cc2)o1)C[C@@H]1OC[C@H](C[C@@H]2O[C@H]2[C@@H](C)[C@H](C)O)[C@@H](O)[C@H]1O [Example 21, 5-p-Cyanophenyl-2-(1-normon-2-yl) oxazole A] | 2.5 µg/mL (≈ 5.34 µM) | 0.1 µg/mL (≈ 0.213 µM) | 0.625 µg/mL (≈ 1.33 µM) | – | 20 µg/mL (≈ 42.7 µM) | 0.156 µg/mL (≈ 0.333 µM) | – | 0.025 µg/mL (≈ 0.0534 µM) | > 128 µg/mL | > 128 µg/mL | 4 µg/mL (≈ 8.54 µM) | 1 µg/mL (≈ 2.13 µM) | 1.25 µg/mL (≈ 2.67 µM) | – | 2.5 µg/mL (≈ 5.34 µM) | > 128 µg/mL | > 128 µg/mL | > 128 µg/mL | > 80 µg/mL | 1 µg/mL (≈ 2.13 µM) | MIC ([1]; M. suipneumoniae J2206/183^b, 6 days, 37° C., read-out: MIC): 0.5 µg/mL (≈ 1.07 µM); MIC (M. hyorhinis ATCC 25021): 0.25 µg/mL (≈ 0.534 µM); MIC [4]: 0.1 µg/mL (≈ 0.213 µM); MIC [5]: 0.25 µg/mL (≈ 0.534 µM); MIC (M. suipneumoniae Str. 11; STR.11, 144 h): 0.25 µg/mL (≈ 0.534 µM); MIC (M. suipneumoniae LABER): 0.25 µg/mL (≈ 0.534 µM) |
| C/C(=C\c1ncc(-c2cccc(S(C)(=O)=O)c2)o1)C[C@@H]1OC[C@H](C[C@@H]2O[C@H]2[C@@H](C)[C@H](C)O)[C@@H](O)[C@H]1O [Example 23, 5-m-Methylsulphonylphenyl-2-(1-normon-2-yl) oxazole A] | 5 µg/mL (≈ 9.59 µM) | – | 1.25 µg/mL (≈ 2.4 µM) | 1 µg/mL (≈ 1.92 µM) | 80 µg/mL (≈ 153 µM) | 0.625 µg/mL (≈ 1.2 µM) | 0.5 µg/mL (≈ 0.959 µM) | 0.025 µg/mL (≈ 0.0479 µM) | > 128 µg/mL | > 64 µg/mL | 4 µg/mL (≈ 7.67 µM) | 2 µg/mL (≈ 3.83 µM) | 5 µg/mL (≈ 9.59 µM) | 0.5 µg/mL (≈ 0.959 µM) | 1.25 µg/mL (≈ 2.4 µM) | > 64 µg/mL | > 64 µg/mL | > 128 µg/mL | > 80 µg/mL | 0.5 µg/mL (≈ 0.959 µM) | MIC (M. dispar NCTC 10125; M. dispar NCTC 10125, 6 days, 37° C., read-out: MIC): 0.5 µg/mL (≈ 0.959 µM); MIC [4]: 1 µg/mL (≈ 1.92 µM); MIC [5, 9]: 0.5 µg/mL (≈ 0.959 µM); MIC (M. suipneumoniae LABER; [11]): 0.5 µg/mL (≈ 0.959 µM) |
| C/C(=C\c1ncc(-c2cccc([S+](C)[O-])c2)o1)C[C@@H]1OC[C@H](C[C@@H]2O[C@H]2[C@@H](C)[C@H](C)O)[C@@H](O)[C@H]1O (some centres unmarked) [Example 25, 5-m-Methylsulphinylphenyl-2-(1-normon-2-yl)oxazole A] | 5 µg/mL (≈ 9.89 µM) | 0.25 µg/mL (≈ 0.494 µM) | 1.25 µg/mL (≈ 2.47 µM) | 1 µg/mL (≈ 1.98 µM) | 80 µg/mL (≈ 158 µM) | 0.625 µg/mL (≈ 1.24 µM) | 0.5 µg/mL (≈ 0.989 µM) | 0.025 µg/mL (≈ 0.0494 µM) | 128 µg/mL (≈ 253 µM) | > 128 µg/mL | 4 µg/mL (≈ 7.91 µM) | 2 µg/mL (≈ 3.96 µM) | 10 µg/mL (≈ 19.8 µM) | 0.5 µg/mL (≈ 0.989 µM) | 2.5 µg/mL (≈ 4.94 µM) | > 128 µg/mL | > 128 µg/mL | > 128 µg/mL | > 80 µg/mL | 2 µg/mL (≈ 3.96 µM) | MIC [4]: 1 µg/mL (≈ 1.98 µM); MIC [5]: 0.25 µg/mL (≈ 0.494 µM); MIC (M. suipneumoniae LABER): 0.25 µg/mL (≈ 0.494 µM) |

— patent publication US5041567A, “Antibacterial monic acid derivatives” (Beecham Group plc, priority 1982, dated 1991)
